Assay results as given in patent publication US20040171073A1, “Compounds for modulation of cholesterol transport” (Massachusetts Institute of Technology, priority 2002, published 2004).

Experiments:
[1] = biological target: T1, murine SR-BI (Mus musculus, UniProt Q61009); assay: Uptake of DiI from DiI-HDL by ldlA[mSR-BI] cells (high throughput screen and concentration dependence); assay type: cell-based; settings: for EC50: inhibition, mean ± SD, n=3
T1 construct: expressed in transfected cells; host or cells: ldlA-7 (LDL receptor deficient Chinese hamster ovary cells)
T1 sequence (Q61009 1-509): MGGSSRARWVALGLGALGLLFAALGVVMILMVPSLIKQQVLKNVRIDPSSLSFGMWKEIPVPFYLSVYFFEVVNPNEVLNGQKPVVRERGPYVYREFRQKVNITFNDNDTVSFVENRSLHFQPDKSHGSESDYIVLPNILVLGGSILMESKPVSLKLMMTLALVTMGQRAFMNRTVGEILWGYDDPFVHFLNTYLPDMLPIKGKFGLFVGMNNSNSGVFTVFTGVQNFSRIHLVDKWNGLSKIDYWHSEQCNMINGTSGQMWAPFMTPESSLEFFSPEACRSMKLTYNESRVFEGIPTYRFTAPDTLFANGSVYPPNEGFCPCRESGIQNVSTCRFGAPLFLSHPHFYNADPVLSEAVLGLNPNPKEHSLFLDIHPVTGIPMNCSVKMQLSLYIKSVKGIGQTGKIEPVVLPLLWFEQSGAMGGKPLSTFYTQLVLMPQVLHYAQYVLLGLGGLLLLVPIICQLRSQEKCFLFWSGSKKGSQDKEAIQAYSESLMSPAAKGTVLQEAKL

[2] = biological target: T1, murine SR-BI; assay: Uptake of [3H]cholesteryl ether from [3H]CE-HDL by ldlA[mSR-BI] cells; assay type: cell-based; settings: for EC50: inhibition, mean ± SD, n=6 (n=5 where footnoted), read-out: (A) EC50 [^3H]CEt HDL uptake
Protocol: (§1) Cells were pre-incubated with BLTs for 1 hr (or 2.5 hrs for transferrin, EGF and cholera toxin uptake experiments) and all the experiments were performed at 37° C. Detailed characterization of the BLTs and their effects was performed with compounds whose identities and purities were confirmed by LC-MS.
(§2) Assays for the uptake of lipids from DiI-HDL and [^3]CE-HDL, efflux of [^3H]cholesterol from labeled cells, and ^125I-HDL binding were performed as described by Acton et al. Science (1996) January 26;271(5248):518-20; Gu, et al. J Biol. Chem. (2000) September 29;275(39):29993-30001; and Ji, et al., J. Biol. Chem. (1997) 272, 20982-5. In some experiments, values were normalized so that the 100% of control represents activity in the absence of compounds and 0% represents activity determined in the presence of a 40-fold excess of unlabeled HDL or, for Y1-BS1 cells, in the presence of a 1:500 dilution of the KKB-1 blocking antibody (Gu, et al., 2000, generous gift from Karen Kozarsky). The amounts of cell-associated [^3H]cholesteryl ether are expressed as the equivalent amount of [^3H]CE-HDL protein (ng) to permit direct comparison of the relative amounts of ^125I-HDL binding and [^3H]CE uptake.

[3] = biological target: T2, SR-BI (Mus musculus, UniProt Q61009); assay: Uptake of [3H]CE from [3H]CE-HDL by Y1-BS1 adrenocortical cells; assay type: cell-based, murine; settings: inhibition, n=2, read-out: (A) EC50 [^3H]CEt HDL uptake (Y1-BS1 cells)
T2 construct: endogenous in cells; host or cells: Y1-BS1 murine adrenocortical cells (ACTH induced)
T2 sequence (Q61009 1-509): T1 sequence (Q61009 1-509)
From the text: Biol. Chem. 273, 26338-48; Gu, et al. (2000) J. Biol. Chem. 275, 29993-30001; Acton, et al. (1994) J. Biol. Chem. 269, 21003-9; Pitas, et al. (1981) Arteriosclerosis 1, 177-85). LDL receptor deficient Chinese hamster ovary cells that express low levels of endogenous SR-BI, ldlA-7 (Kingsley, et al. (1984) Proc. Nat. Acad. Sci. USA 81, 5454-8), ldlA-7 cells stably transfected to express high levels of murine SR-BI (ldlA[mSR-BI])(Acton, et al., 1996), Y1-BS1 murine adrenocortical cells that express high levels of SR-BI after induction with ACTH (Rigotti, et al. (1996) J. Biol. Chem. 271, 33545-9), monkey kidney BS-C1 cells (Kapoor, et al. (2000) Journal of Cell Biology 150, 975-88) and HeLa cells (Temel, et al. (2002) J Biol Chem 8, 8) were maintained as previously described.
as §1, §2

[4] = biological target: T1, murine SR-BI; assay: Efflux of [3H]cholesterol from ldlA[mSR-BI] cells to HDL; assay type: cell-based; settings: for EC50: inhibition of efflux to HDL, mean ± SD, n=3
Protocol: as §1, §2
In addition to mediating selective lipid uptake from HDL, SR-BI can facilitate the efflux of unesterified cholesterol from cells to HDL particles (Jian, et al. (1998) J Biol Chem 273, 5599-606. Ji, et al. (1997) J. Biol. Chem. 272, 20982-5). To determine if the BLTs could inhibit this SR-BI-mediated lipid transport activity, cells were labeled with [^3H]cholesterol and its efflux to unlabeled HDL measured in the presence or absence of the BLTs. (FIG. 2C, table II). Cells were incubated for 3 hrs in the absence (top panels) or presence (bottom panels) of 50 micromolar BLT-1 (MIT 9952-53) and epifluorescence light microscopy was used to monitor the following cellular activities: clathrin-dependent endocytosis of fluorescently labeled transferrin (A,B; HeLa cells) and EGF (C,D; HeLa cells); clathrin-independent endocytosis of fluorescently labeled cholera toxin (E, F; BSC-1 cells), and transport of the temperature sensitive fluorescent membrane protein VSVG^ts045-EGFP from the ER to the cell surface (G,H; BSC-1 cells). In addition, the intracellular distributions of the actin cytoskeleton (visualized with rhodamine labeled phalloidin, I,J; ldlA-[mSRBI] cells) and the tubulin network (visualized with fluorescently labeled antibodies specific to y-tubulin, K,L; BSC-1 cells) were determined. BLT-1 (MIT 9952-53) and the other BLTs (not shown) had no effects on any of these cellular properties or activities.

[5] = biological target: T1, murine SR-BI; assay: 125I-HDL binding to ldlA[mSR-BI] cells; settings: for (B) Binding Parameters Bmax: 125I-HDL binding sites in presence of BLT at its ICCE95, no BLT control 100.0 ± 18.4; for Effect on HDL binding to SR-BI / EC50: ldlA[mSR-BI] cells; for EC50: enhancement of HDL binding, 10 μg protein/ml HDL, mean ± SD, n=3, read-out: (A) EC50 ^1nI-HDL binding
Protocol: as §1, §2
It was initially expected that the BLTs would function by inhibiting HDL binding to SR-BI. However, when cells were incubated with a sub-saturating concentration of either [^3H]CE-HDL or ^125I-labeled HDL (^125I-HDL) (10 μg protein/ml) and increasing amounts of compound (FIG. 5), the decreases in [^3H]CE uptake (solid lines, no symbols, data from FIG. 2B) and [3H]cholesterol efflux (dashed lines, data from FIG. 2C) were accompanied by corresponding increases in ^125I-HDL binding (solid lines, square symbols). The concentration dependence of ^125I-HDL binding was determined in the presence or absence of BLTs at their ICCE95 concentrations (FIG. 6 and Table II).

[6] = biological target: T1, murine SR-BI; assay: Rate of 125I-HDL dissociation from cells; settings: dissociation of 125I-HDL from ldlA[mSR-BI] cells in presence of BLT; no BLT control 0.11; n=2; read-out: (B) Binding Parameters Koff (converted)
Protocol: The rates of HDL dissociation from cells were determined by incubation of the cells with ^125I-HDL (10 μg protein/ml, 2 hrs, 37° C.) with and without BLTs. The medium was then either replaced with the same medium in which the ^125I-HDL was substituted by a 40-fold excess of unlabeled HDL or a 40-fold excess of unlabeled HDL was added to the labeled incubation medium. The amounts of cell-associated ^125I-HDL were then determined as a function of time. The two methods gave similar results.

[7] = DiI uptake from DiI-HDL, compounds at nominal 10 micromolar, ldlA[mSR-BI] cells

SMILES: C/C(=N\NC(=O)c1ccccc1I)c1ccc(N)cc1 [MIT 9952-6]
- ENDOHDL Test 1 [1]: 0.52
- ENDOHDL Test 2 [1]: 0.54
- EC50 ([1]; ldlA[mSR-BI] cells): 7.1 ± 3.7 µM
- ICCE95 concentration (inhibits [3H]CE uptake by 95%) [2]: 50 µM
- EC50 [2]: 13.8 µM
- EC50 [3]: 8 µM
- ICFC50 for efflux compared with that for uptake [4]: higher
- EC50 [4]: 75.3 ± 40.1 µM
- (B) Binding Parameters Bmax [5]: 92.1 ± 36.8%
- Effect on HDL binding to SR-BI [5]: enhanced
- EC50 [5]: 18 ± 3.7 µM
- koff [6]: 0.00132 s⁻¹

SMILES: CCCCOCCC1CCC/C1=N\NC(N)=S (stereo not drawn) [MIT 9952-61]
- ENDOHDL Test 1 [1]: 0.7
- ENDOHDL Test 2 [1]: 0.57
- Inhibition of SR-BI-mediated lipid transport / DiI uptake, concentration range in words ([1]; ldlA[mSR-BI] cells): inhibited in the nanomolar range
- EC50 ([1]; ldlA[mSR-BI] cells): 0.35 ± 0.18 µM
- ICCE95 concentration (inhibits [3H]CE uptake by 95%) [2]: 1 µM
- EC50 [2]: 0.24 ± 0.1 µM
- EC50 [3]: 0.41 µM
- EC50 [4]: 0.47 ± 0.23 µM
- (B) Binding Parameters Bmax [5]: 93.0 ± 20.5%
- Effect on HDL binding to SR-BI [5]: enhanced
- EC50 [5]: 0.25 ± 0.13 µM
- koff [6]: 0.00103 s⁻¹

SMILES: COc1ccccc1NC(=O)Nc1ccc2ccccc2c1 [MIT 9952-29]
- EC50 ([1]; ldlA[mSR-BI] cells): 2 ± 1 µM
- ICCE95 concentration (inhibits [3H]CE uptake by 95%) [2]: 50 µM
- EC50 [2]: 3.9 µM
- EC50 [3]: 4.4 µM
- ICFC50 for efflux compared with that for uptake [4]: higher
- EC50 [4]: 54.9 ± 35.2 µM
- (B) Binding Parameters Bmax [5]: 79.9 ± 15.9%
- Effect on HDL binding to SR-BI [5]: enhanced
- EC50 [5]: 24.9 ± 14.8 µM
- koff [6]: 0.00137 s⁻¹

SMILES: c1ccc(-c2noc(-c3ccccc3)c3cccc2-3)cc1 [MIT 9952-19]
- EC50 ([1]; ldlA[mSR-BI] cells): 0.51 ± 0.15 µM
- ICCE95 concentration (inhibits [3H]CE uptake by 95%) [2]: 50 µM
- EC50 [2]: 2.3 ± 1.5 µM
- EC50 [3]: 1.7 µM
- ICFC50 for efflux compared with that for uptake [4]: higher
- EC50 [4]: 17.2 ± 4 µM
- (B) Binding Parameters Bmax [5]: 85.8 ± 15.8%
- Effect on HDL binding to SR-BI [5]: enhanced
- EC50 [5]: 46.5 ± 49.3 µM
- koff [6]: 0.00133 s⁻¹

SMILES: C/C(CS(=O)(=O)c1ccc(C)cc1)=N/NC(N)=S [MIT 9952-181]
- ENDOHDL Test 1 [1]: 0.6
- ENDOHDL Test 2 [1]: 0.54

SMILES: O=C(O)C(Cc1ccccc1)N1C(=O)CSC1=S (stereo not drawn) [MIT 9952-202]
- ENDOHDL Test 1 [1]: 1.23
- ENDOHDL Test 2 [1]: 1.11

SMILES: Cc1ccc(C(C)C)c(OCC(=O)Nc2cc([N+](=O)[O-])ccc2C)c1 [MIT 9952-153]
- ENDOHDL Test 1 [1]: 0.6
- ENDOHDL Test 2 [1]: 0.57

SMILES: O=C(N/N=C\c1cccn1-c1ccc([N+](=O)[O-])cc1)c1ccccc1 [MIT 9952-199]
- ENDOHDL Test 1 [1]: 0.52
- ENDOHDL Test 2 [1]: 0.46

SMILES: Br.CCOC(=O)c1c(CSC(=N)N)n(C)c2cc(Br)c(OC(C)=O)cc12 [MIT 9952-146]
- ENDOHDL Test 1 [1]: 0.62
- ENDOHDL Test 2 [1]: 0.71

SMILES: CCOC(=O)c1c(C)n(-c2ccc(C)cc2)c2ccc(O)cc12 [MIT 9952-73]
- ENDOHDL Test 1 [1]: 0.61
- ENDOHDL Test 2 [1]: 0.59

SMILES: C/C(=N\NC(=O)COc1ccc(I)cc1)c1cccs1 [MIT 9952-254]
- ENDOHDL Test 1 [1]: 0.69
- ENDOHDL Test 2 [1]: 1.01

SMILES: O=C(Nc1cccc(NC(=O)c2ccccc2Cl)c1)c1cccc([N+](=O)[O-])c1 [MIT 9952-213]
- ENDOHDL Test 1 [1]: 0.66
- ENDOHDL Test 2 [1]: 0.57

SMILES: O=C(CNS(=O)(=O)c1ccc([N+](=O)[O-])cc1)N/N=C/c1ccccc1 [MIT 9952-186]
- ENDOHDL Test 1 [1]: 0.5
- ENDOHDL Test 2 [1]: 0.5

SMILES: CCOC(=O)c1c(NC(=O)c2ccc(N)c([N+](=O)[O-])c2)sc2c1CCCC2 [MIT 9952-121]
- ENDOHDL Test 1 [1]: 0.54
- ENDOHDL Test 2 [1]: 0.57

SMILES: CCn1c(/C=C/C=C2\SCCN2C)[n+](CC)c2cc(Cl)ccc21 [MIT 9952-92]
- ENDOHDL Test 1 [1]: 0.7
- ENDOHDL Test 2 [1]: 0.63

SMILES: CCCCC1(OC(=O)Nc2ccc(Cl)cc2)CCCCC1 [MIT 9952-196]
- ENDOHDL Test 1 [1]: 0.63
- ENDOHDL Test 2 [1]: 0.6

SMILES: Cc1nc(-c2ccc([N+](=O)[O-])cc2)c(C(=O)Nc2ccccc2)s1 [MIT 9952-160]
- ENDOHDL Test 1 [1]: 0.48
- ENDOHDL Test 2 [1]: 0.55

SMILES: CC(C)(C)c1ccc(C(=O)Nc2cccc(NC(=O)c3cccc([N+](=O)[O-])c3)c2)cc1 [MIT 9952-214]
- ENDOHDL Test 1 [1]: 0.63
- ENDOHDL Test 2 [1]: 0.35

SMILES: O=C(Nc1ccc(-c2nc3ccccc3s2)cc1)c1ccc(Cl)cc1Cl [MIT 9952-284]
- ENDOHDL Test 1 [1, 7]: 0.65
- ENDOHDL Test 2 [1, 7]: 0.54

SMILES: CCOCc1c(C)cc(C)c(/C=N/Nc2ccc([N+](=O)[O-])cc2)c1C [MIT 9952-174]
- ENDOHDL Test 1 [1]: 0.6
- ENDOHDL Test 2 [1]: 0.62

SMILES: CCN(CC)CC(=O)Nc1ccc2c(c1)Nc1ccccc1CC2.Cl [MIT 9952-158]
- ENDOHDL Test 1 [1]: 0.42
- ENDOHDL Test 2 [1]: 0.39
